What was measured:
Uch-L3 = molecular target: T1, Uch-L3 (Homo sapiens, UniProt P15374); assay: UCH-L3 activity assay (Ub-AMC); format: biochemical; details: 400 nM Ub-AMC, 13 pM enzyme, 30 min pre-incubation, 60 min at 37° C., sigmoidal fit; read-out: Uch-L3 (inhibition of cysteine protease activity)
T1 sequence (P15374 1-230): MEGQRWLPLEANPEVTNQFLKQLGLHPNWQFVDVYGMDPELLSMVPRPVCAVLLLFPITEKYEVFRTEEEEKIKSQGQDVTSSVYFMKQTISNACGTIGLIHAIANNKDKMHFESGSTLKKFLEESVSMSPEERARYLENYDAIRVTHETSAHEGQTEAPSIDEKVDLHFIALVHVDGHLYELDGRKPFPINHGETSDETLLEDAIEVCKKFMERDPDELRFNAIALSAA
Description: Uch-L3 was diluted in USP buffer (50 mM Tris HCl; 0.5 mM EDTA; 5 mM DTT; 0.01% Triton X-100; Bovine Serum Albumin 0.05 mg.ml^−1 pH7.6). Compounds stocks (100 mM) were stored at −20° C. in DMSO. Compounds were tested at the following final concentrations: 100 μM; 33.3 μM; 11.1 μM; 3.7 μM; 1.23 μM; 412 nM; 137 nM; 45.7 nM, 15.2 nM; 5 nM.
Reactions were performed as duplicates in Black LJL 96 well plates (HE microplates; Molecular Devices; 20 μl final reaction volume). The substrate concentration for Uch-L3 was 400 nM Ub-AMC (Boston Biochem). The concentration of the enzyme (Uch-L3) in specificity assays was 13 pM. The concentrations were determined in order to perform specificity assays under initial velocities at fixed substrate concentration. Compounds were pre-incubated with enzymes for 30 minutes at 25° C. Reactions were initiated by addition of substrate to the plates containing the enzymes (+/−compounds) diluted in assay buffer.
Reactions were incubated for 60 minutes at 37° C. Reactions were stopped by adding acetic acid (100 mM final). Readings were performed on a Pherastar Fluorescent Reader (BMG). δ Emission 380 nm; 6 Excitation=460 nm. Data (mean values +/−standard deviation) were analyzed as % of control (no compound) and plotted as percentage versus the Log of the compound concentration using GraphPad (Prism). Data were fitted to a sigmoidal model (variable slope).

USP8 = molecular target: T2, USP8 (Homo sapiens, UniProt P40818); assay: USP8 activity assay (Ub-AMC); format: biochemical; details: 400 nM Ub-AMC, 630 pM enzyme, pH8.8, 30 min pre-incubation, 60 min at 37° C., sigmoidal fit; read-out: USP8 (inhibition of cysteine protease activity)
T2 construct: His tag (from vector pFastBac-HT) (N); made in house; host or cells: insect cells (Sf9 or High Five), baculovirus
T2 sequence (P40818 1-1118): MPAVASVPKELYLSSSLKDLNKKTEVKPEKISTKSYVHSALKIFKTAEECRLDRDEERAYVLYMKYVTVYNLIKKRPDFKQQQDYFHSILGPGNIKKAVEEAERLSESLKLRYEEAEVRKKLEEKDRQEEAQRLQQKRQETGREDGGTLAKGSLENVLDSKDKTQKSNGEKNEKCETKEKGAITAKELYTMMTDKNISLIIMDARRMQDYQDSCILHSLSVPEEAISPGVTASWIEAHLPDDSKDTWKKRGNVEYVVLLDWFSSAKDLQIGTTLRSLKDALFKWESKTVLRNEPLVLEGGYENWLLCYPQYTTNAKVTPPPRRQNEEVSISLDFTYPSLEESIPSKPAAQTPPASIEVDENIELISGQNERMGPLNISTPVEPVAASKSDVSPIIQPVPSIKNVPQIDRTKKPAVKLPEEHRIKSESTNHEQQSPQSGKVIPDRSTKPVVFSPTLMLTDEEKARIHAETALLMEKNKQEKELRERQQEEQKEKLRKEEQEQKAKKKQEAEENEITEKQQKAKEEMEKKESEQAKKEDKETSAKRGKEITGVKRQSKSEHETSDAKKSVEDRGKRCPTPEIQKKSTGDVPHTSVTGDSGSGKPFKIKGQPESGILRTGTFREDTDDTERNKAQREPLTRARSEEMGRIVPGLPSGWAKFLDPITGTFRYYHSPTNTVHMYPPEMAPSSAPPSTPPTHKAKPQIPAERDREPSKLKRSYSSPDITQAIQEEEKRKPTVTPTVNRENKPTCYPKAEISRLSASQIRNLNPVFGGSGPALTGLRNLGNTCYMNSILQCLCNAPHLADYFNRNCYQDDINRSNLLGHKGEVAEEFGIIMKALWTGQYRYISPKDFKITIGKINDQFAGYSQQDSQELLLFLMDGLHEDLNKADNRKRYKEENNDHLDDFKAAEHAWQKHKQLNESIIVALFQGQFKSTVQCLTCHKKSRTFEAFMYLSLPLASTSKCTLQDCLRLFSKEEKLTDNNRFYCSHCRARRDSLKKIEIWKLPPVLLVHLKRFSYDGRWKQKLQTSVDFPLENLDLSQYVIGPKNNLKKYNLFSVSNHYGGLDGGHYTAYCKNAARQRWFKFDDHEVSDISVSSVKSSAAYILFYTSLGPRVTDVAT
Source text: The cDNA encoding USP8 was obtained by PCR amplification from placenta mRNA. USP8 cDNA was subcloned by PCR into a baculovirus expression vector (pFastBac-HT; Invitrogen). A cDNA encoding a mutated USP8 was generated by mutagenic PCR. The corresponding protein encodes a cysteine to alanine substitution at residue 786. The sequences were ascertained by sequencing of the entire open reading frame. Bacmids encoding […] were generated following. DH10bac transposition. The corresponding bacmids were transfected into insect cells (Sf9). Viruses were recovered from culture supernatant and amplified twice. Insect cells (Sf9 or High Five; Invitrogen) were infected for 72 hours. Total cell lysates were harvested and lyzed in lysis buffer (Tris HCl 50 mM pH7.6; 0.75% NP40; 500 mM NaCl; 10% glycerol; 1 mM DTT; 10 mM imidazole; Protease Inhibitor Cocktail; AEBSF 20 μg.ml^−1; Aprotinin 10 μg.ml^−1). Proteins were affinity purified on metal affinity resins (Talon Metal affinity resin; BD Biosciences). Bound materials were extensively washed in wash buffer (50 mM Sodium Phosphate pH 7.0; 300 mM NaCl; 10 mM imidazole; 0.5% Triton X-100; 10% glycerol) and eluted from the resin in 250 mM imidazole-containing wash buffer. Proteins were dialyzed in dialysis buffer (Tris HCl pH 7.6 20 mM; NaCl 200 mM; DTT 1 mM; EDTA 1 mM; 10% Glycerol). Proteins purifications were analyzed on 4-12% NuPAGE (Invitrogen).
USP8 was diluted in USP buffer (50 mM Tris HCl; 0.5 mM EDTA; 5 mM DTT; 0.01% Triton X-100; Bovine Serum Albumin 0.05 mg.ml^−1 pH8.8). Compounds stocks (100 mM) were stored at −20° C. in DMSO.
Reactions were performed as duplicates in Black LJL 96 well plates (HE microplates; Molecular Devices; 20 μl final reaction volume). The substrate concentration for USP8 was 400 nM Ub-AMC (Boston Biochem). The concentrations of the enzyme (USP8) in specificity assays was 630 pM. The concentrations were determined in order to perform specificity assays under initial velocities at fixed substrate concentration. Compounds were pre-incubated with enzymes for 30 minutes at 25° C. Reactions were initiated by addition of substrate to the plates containing the enzymes (+/−compounds) diluted in assay buffer. Reactions were incubated for 60 minutes at 37° C. Reactions were stopped by adding acetic acid (100 mM final). Readings were performed on a Pherastar Fluorescent Reader (BMG). λ Emission 380 nm; λ Excitation=460 nm. Data (mean values +/−standard deviation) were analyzed as % of control (no compound) and plotted as percentage versus the Log of the compound concentration using GraphPad (Prism). Data were fitted to a sigmoidal model (variable slope).

IC50 (Uch-L3) [µM] | IC50 (USP8) [µM] | SMILES
89 | 35 | C=CCON=C1c2ccccc2-c2nc3nnc(CCCC)n3nc21 (mixture of isomers) [5e, 1-Butyl-2,3,4,110,10a-pentaaza-cyclopenta[b]fluoren-9-one O-allyl-oxime]
51 | 47.7 | C=CCON=C1c2ccccc2-c2nc3nnc(C)n3nc21 (mixture of isomers) [5c, 1-Methyl-2,3,4,10,10a-pentaaza-cyclopenta[b]fluoren-9-one O-allyl-oxime]
